According to US11078216B2, “Bisaryl amides as NRF2 activators” (GLAXOSMITHKLINE INTELLECTUAL PROPERTY DEVELOPMENT LIMITED, priority 2016, dated 2021):

What follows are compounds tested on NRF2 (NQO1 activity as marker for NRF2 activation), BEAS-2B cells (assay: BEAS-2B NQO1 MTT Assay). Settings: EC50 of NQO1 specific activity induction, 48 hours incubation, read-out: EC50.
Assay type: cell-based
Summary of the method: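 As a marker of NRF2 activation, NQO1 specific activity was read from the rate of absorbance change at 570 nm in MTT cocktail over 30 minutes. Lysates came from BEAS-2B cells treated for 48 hours at 37° C, and EC50 was derived by 3-parameter fitting.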
`COc1cc(C(CC(=O)Nc2cccnc2)c2ccc(C)c(CN3C[C@@H](C)Cc4ccc(C(F)(F)F)cc4S3(=O)=O)c2)cc2nnn(C)c12` (stereo partly shown) [Example 61] showed an EC50 of 10 to 100 nM.

Same assay, conditions: Homo sapiens, EC50 of NQO1 specific activity induction, 48 hours incubation, read-out: EC50
`CCCn1cc(CO[C@H](c2ccc(C)c(CN3C[C@@H](C)Cc4ccc(F)cc4S3(=O)=O)c2)C(C)(C)C(=O)Nc2cccnc2)nn1` [Example 56, (R)-3-(3-(((S)-8-Fluoro-4-methyl-1,1-dioxido-4,5-dihydrobenzo[f][1,2]thiazepin-2(3H)-yl)methyl)-4-methylphenyl)-2,2-dimethyl-3-((1-propyl-1H-1,2,3-triazol-4-yl)methoxy)-N-(pyridin-3-yl)propanamide] was tested, and the EC50 was 100 to 1000 nM.
Work on `CC[C@H]1Cc2ccccc2S(=O)(=O)N(Cc2cc([C@H](OCc3cn(CC)nn3)C(C)(C)C(=O)Nc3cccnc3)ccc2C)C1` [Example 57, (S)-3-(3-(((S)-4-Ethyl-1,1-dioxido-4,5-dihydrobenzo[f][1,2]thiazepin-2(3H)-yl)methyl)-4-methylphenyl)-3-((1-ethyl-1H-1,2,3-triazol-4-yl)methoxy)-2,2-dimethyl-N-(pyridin-3-yl)propanamide] yielded an EC50 of 10 to 100 nM.
`CCn1cc(CO[C@@H](c2ccc(C)c(CN3C[C@@H](C)Cc4ncccc4S3(=O)=O)c2)C(C)(C)C(=O)Nc2cccnc2)nn1` [Example 58, (S)-3-((1-Ethyl-1H-1,2,3-triazol-4-yl)methoxy)-2,2-dimethyl-3-(4-methyl-3-(((S)-4-methyl-1,1-dioxido-4,5-dihydropyrido[2,3-f][1,2]thiazepin-2(3H)-yl)methyl)phenyl)-N-(pyridin-3-yl)propanamide] showed an EC50 of 100 to 1000 nM.
Work on `CCn1nnc2c(C)c([C@H](c3ccc(C)c(CN4C[C@H](C)Cc5ccccc5S4(=O)=O)c3)C(C)(C)C(=O)Nc3cccnc3)cc(OC)c21` [Example 59, (S)-3-(1-Ethyl-7-methoxy-4-methyl-1H-benzo[d][1,2,3]triazol-5-yl)-2,2-dimethyl-3-(4-methyl-3-(((R)-4-methyl-1,1-dioxido-4,5-dihydrobenzo[f][1,2]thiazepin-2(3H)-yl)methyl)phenyl)-N-(pyridin-3-yl)propanamide] yielded an EC50 of 100 to 1000 nM.
`CC[C@@H]1CN(Cc2cc([C@H](c3cc(OC)c4c(nnn4CC)c3C)C(C)(C)C(=O)Nc3cccnc3)ccc2C)S(=O)(=O)c2ccccc2O1` [Example 60, (R)-3-(3-(((R)-4-Ethyl-1,1-dioxido-3,4-dihydro-2H-benzo[b][1,4,5]oxathiazepin-2-yl)methyl)-4-methylphenyl)-3-(1-ethyl-7-methoxy-4-methyl-1H-benzo[d][1,2,3]triazol-5-yl)-2,2-dimethyl-N-(pyridin-3-yl)propanamide] was tested, and the EC50 was 100 to 1000 nM.
In the case of `COc1cc([C@@H](CC(=O)Nc2cccnc2)c2ccc(C)c(CN3C[C@@H](C)Oc4ccccc4S3(=O)=O)c2)cc2nnn(C)c12` [Example 62, (S)-3-(7-Methoxy-1-methyl-1H-benzo[d][1,2,3]triazol-5-yl)-3-(4-methyl-3-(((R)-4-methyl-1,1-dioxido-3,4-dihydro-2H-benzo[b][1,4,5]oxathiazepin-2-yl)methyl)phenyl)-N-(pyridin-3-yl)propanamide], the EC50 is reported as 10 to 100 nM.
`CCn1nnc2c(C)c([C@H](c3ccc(C)c(CN4C[C@@H](C)Cc5ccc(C(F)(F)F)cc5S4(=O)=O)c3)C(C)(C)C(=O)Nc3cccnc3)cc(OC)c21` [Example 63, (S)-3-(1-Ethyl-7-methoxy-4-methyl-1H-benzo[d][1,2,3]triazol-5-yl)-2,2-dimethyl-3-(4-methyl-3-(((S)-4-methyl-1,1-dioxido-8-(trifluoromethyl)-4,5-dihydrobenzo[f][1,2]thiazepin-2(3H)-yl)methyl)phenyl)-N-(pyridin-3-yl)propanamide] was tested, and the EC50 was 1 to 10 nM.
With `CC[C@@H]1CN(Cc2cc([C@@H](c3cc(OC)c4c(nnn4CC)c3C)C(C)(C)C(=O)Nc3cccnc3)ccc2C)S(=O)(=O)c2ccccc2O1` [Example 64, (S)-3-(3-(((R)-4-Ethyl-1,1-dioxido-3,4-dihydro-2H-benzo[b][1,4,5]oxathiazepin-2-yl)methyl)-4-methylphenyl)-3-(1-ethyl-7-methoxy-4-methyl-1H-benzo[d][1,2,3]triazol-5-yl)-2,2-dimethyl-N-(pyridin-3-yl)propanamide] the EC50 was 1 to 10 nM.
For `CC[C@@H]1CN(Cc2cc([C@H](CC(=O)Nc3cccnc3)c3cc(OC)c4c(nnn4CC)c3C)ccc2C)S(=O)(=O)c2cccnc2O1` [Example 65, (S)-3-(3-(((R)-4-Ethyl-1,1-dioxido-3,4-dihydro-2H-pyrido[2,3-b][1,4,5]oxathiazepin-2-yl)methyl)-4-methylphenyl)-3-(1-ethyl-7-methoxy-4-methyl-1H-benzo[d][1,2,3]triazol-5-yl)-N-(pyridin-3-yl)propanamide], the EC50 was 10 to 100 nM.
For `CCn1nnc2c(C)c([C@H](c3ccc(C)c(CN4C[C@@H](C)Cc5cc(C(F)(F)F)ccc5S4(=O)=O)c3)C(C)(C)C(=O)Nc3cccnc3)cc(OC)c21` [Example 66, (S)-3-(1-Ethyl-7-methoxy-4-methyl-1H-benzo[d][1,2,3]triazol-5-yl)-2,2-dimethyl-3-(4-methyl-3-(((S)-4-methyl-1,1-dioxido-7-(trifluoromethyl)-4,5-dihydrobenzo[f][1,2]thiazepin-2(3H)-yl)methyl)phenyl)-N-(pyridin-3-yl)propanamide], the EC50 was 10 to 100 nM.
With `CC[C@@H]1CN(Cc2cc([C@H](CC(=O)Nc3nn[nH]n3)c3ccc4c(nnn4CC)c3C)ccc2C)S(=O)(=O)c2cccnc2O1` [Example 67, (S)-3-(3-(((R)-4-Ethyl-1,1-dioxido-3,4-dihydro-2H-pyrido[2,3-b][1,4,5]oxathiazepin-2-yl)methyl)-4-methylphenyl)-3-(1-ethyl-4-methyl-1H-benzo[d][1,2,3]triazol-5-yl)-N-(2H-tetrazol-5-yl)propanamide] the EC50 was 100 to 1000 nM.
`CC[C@@H]1CN(Cc2cc([C@@H](c3ccc4c(nnn4CC)c3C)C(C)(C)C(N)=O)ccc2C)S(=O)(=O)c2cccnc2O1` [Example 68, (S)-3-(3-(((R)-4-Ethyl-1,1-dioxido-3,4-dihydro-2H-pyrido[2,3-b][1,4,5]oxathiazepin-2-yl)methyl)-4-methylphenyl)-3-(1-ethyl-4-methyl-1H-benzo[d][1,2,3]triazol-5-yl)-2,2-dimethylpropanamide] gave an EC50 of 1 to 10 nM.
Work on `Cc1ccc(C(CC(=O)Nc2cccnc2)c2ccc(C#N)cc2C)cc1CN1CC(C)Cc2ccc(C(F)(F)F)cc2S1(=O)=O` (stereo not shown) [Example 70, 3-(4-Cyano-2-methylphenyl)-3-(4-methyl-3-((4-methyl-1,1-dioxido-8-(trifluoromethyl)-4,5-dihydrobenzo[f][1,2]thiazepin-2(3H)-yl)methyl)phenyl)-N-(pyridin-3-yl)propanamide] yielded an EC50 of 100 to 1000 nM.
With `CC[C@H]1Cc2ccccc2S(=O)(=O)N(Cc2cc([C@@H](c3ccc4c(nnn4CC)c3C)C(C)(C)C(=O)Nc3ncns3)ccc2C)C1` [Example 71, (S)-3-(3-(((S)-4-Ethyl-1,1-dioxido-4,5-dihydrobenzo[f][1,2]thiazepin-2(3H)-yl)methyl)-4-methylphenyl)-3-(1-ethyl-4-methyl-1H-benzo[d][1,2,3]triazol-5-yl)-2,2-dimethyl-N-(1,2,4-thiadiazol-5-yl)propanamide] the EC50 was 1 to 10 nM.
In the case of `CC[C@H]1Cc2ccccc2S(=O)(=O)N(Cc2cc([C@@H](c3ccc4c(nnn4CC)c3C)C(C)(C)C(=O)Nc3nnnn3-c3ccccc3)ccc2C)C1` [Example 72, (S)-3-(3-(((S)-4-Ethyl-1,1-dioxido-4,5-dihydrobenzo[f][1,2]thiazepin-2(3H)-yl)methyl)-4-methylphenyl)-3-(1-ethyl-4-methyl-1H-benzo[d][1,2,3]triazol-5-yl)-2,2-dimethyl-N-(1-phenyl-1H-tetrazol-5-yl)propanamide], the EC50 is reported as 10 to 100 nM.
